Experimental data taken from patent US20100137391A1, “Histamine H3 Agonist for use as Therapeutic Agent for a Lipid/Glucose Metabolic Disorder” (priority 2005, published 2010).

Legend:
wild type mice [1] = assay: Measurement of amount of food intake (and body weight), wild type mice; format: in vivo
Text: (§1) Histamine H3 receptor knockout mice (hereinafter referred to as “H3RKO mice”) were produced by the method of Takahashi et al. (J. Clin. Invest, Vol. 110, p. 1791, 2002). The obtained knockout mice were subjected to back crossing with C57BL/6J over 5 generations. Six- to nine-month-old male litters were used in an acute drug administration test. On the other hand, 18- to 20-month-old mice whose parents were H3RKO mice or wild type mice (N5 of C57BL/6J) were used in a chronic drug administration test.
(§2) All mice were individually bred at 25° C., and light and dark were controlled every 12 hours. During breeding, water and feed were freely given to the mice. As such feed, CE2 (CLEA Japan, Inc.) was given to thin mice, and medium high fat diet (Oriental Bio Service Co., Ltd.) was given to DIO mice.
(§3) The concentration of each compound was set at 5 ml/kg.
(§4) The amount of food intake was measured based on the weight of feed at 19:00 and 23:00.

H3RKO mice [2] = assay: Measurement of amount of food intake (and body weight), H3RKO mice; format: in vivo
Text: as §1, §2, §3, §4

wild type mice [3] = tested on: wild type mice
Text: as §1, §2, §3
(§5) Mice were divided into groups, depending on mean body weight and the amount of daily food intake before administration of the compound. The body weight and the amount of food intake were measured every day.
(§6) In the test using Thioperamide, mice were divided into 4 groups: a group in which a solvent was administered to C57BL/6J DiO mice at 9:00; a group in which 10 mpk Thioperamide was administered thereto at 9:00; a group in which a solvent was administered to C57BL/6J DiO mice at 17:00; and a group in which 10 mpk Thioperamide was administered thereto at 17:00. […] On the 10th day after the administration, such mice were left in a starvation state for 2 hours. Thereafter, blood was collected from the orbit of each mouse, and the glucose and insulin levels were measured.
(§7) A change in body weight was calculated by dividing a decrease in body weight by the body weight on day 0 at initiation of the test, and the calculated value was expressed as a percentage. The degree of obesity was measured using an NMR analyzer (Minispec; Bruker).

H3RKO mice [4] = assay: Anti-obesity test with Imetit, H3RKO mice; format: in vivo
Text: as §1, §2, §3, §5, §6, §7

C57BL/6J mice = assay: Measurement of energy consumption (indirect calorimetry); format: in vivo; conditions: Imetit 5 mpk and 20 mpk vs vehicle
Experimental: Energy consumption was measured using Indirect calorimetry (Columbus Instrument). That is to say, C57BL/6J mice were acclimatized in a test chamber overnight, and VO2 (oxygen consumption) and VCO2 […] were then measured for 1 minute every 10 minutes. Sample air was collected every 10 minutes. RQ (respiratory quotient) was calculated by dividing […]. The test was carried out from 9:00 to 17:00. During the test, mice were allowed to freely ingest feed and water.

C57BL/6J DiO mice = assay: Anti-obesity test with Thioperamide; format: in vivo; conditions: 10 mpk Thioperamide at 9:00 or 17:00; FIG. 6
Experimental: as §2, §3, §5, §6, §7

[5] = Wild type, 10th day after administration, 2 hours starvation, blood
[6] = Wild type, Imetit twice a day, NMR analyzer
[7] = H3RKO, 10th day after administration, 2 hours starvation, blood
[8] = H3RKO, Imetit twice a day, NMR analyzer

SMILES | change in body weight (wild type mice [1]; FIG. 3) | amount of food intake (wild type mice [1]; oral administration, vs solvent control mice, FIG. 1) | change in body weight (H3RKO mice [2]; FIG. 4) | amount of food intake (H3RKO mice [2]; oral administration, vs solvent control mice, FIG. 2) | abnormal glucose tolerance (wild type mice [3]) | Glucose (wild type mice [3]; [5]) [mg/dL] | Insulin (wild type mice [3]; [5]) [ng/mL] | Fat (%) (wild type mice [3]; [6]) | Lean body mass (%) (wild type mice [3]; [6]) | insulin concentration in blood (wild type mice [3]; together with fat-decreasing effect) | body weight-decreasing effect (H3RKO mice [4]; H3RKO mice, Imetit twice a day) | Glucose (H3RKO mice [4]; [7]) [mg/dL] | Insulin (H3RKO mice [4]; [7]) [ng/mL] | Fat (%) (H3RKO mice [4]; [8]) | Lean body mass (%) (H3RKO mice [4]; [8]) | VO2 (oxygen consumption) (C57BL/6J mice; FIG. 8, 11) | VCO2 (C57BL/6J mice; FIG. 9, 11) | RQ (respiratory quotient) (C57BL/6J mice; FIG. 10, 11) | body weight of fat mice (C57BL/6J DiO mice)
N=C(N)SCCc1c[nH]cn1 [Imetit, carbamimidothioic acid 2-(1H-imidazol-4-yl)ethyl ester] | decreased depending on the number of doses | lower than that of control mice | such a change in body weight was not observed | such a decrease in the amount of food intake was not observed | improved | 164.1 ± 6.4 | 4.7 ± 0.8 | 39.2 ± 2.0 | 58.3 ± 1.6 | decreased | such effect was not observed in H3RKO mice | 166.7 ± 10.5 | 4.7 ± 0.9 | 46.3 ± 2.0 | 52.7 ± 1.4 | increases | increases | decrease | 
S=C(NC1CCCCC1)N1CCC(c2cnc[nH]2)CC1 [Thioperamide] |  |  |  |  |  |  |  |  |  |  |  |  |  |  |  |  |  |  | tendency that the body weight of fat mice was increased
